Our source for the IC50 values is US20050119305A1, “Il-6 production inhibitors” (priority 2001, published 2005).

Each structure is given as a SMILES string.

The test system of this test is IL-6 production from A549 cells. The experiment in a line: Inhibitory activity on IL-6 production from A549 cells (TNF-α stimulated, ELISA). The note with it: A549 cells (human lung epithelial cell line), TNF-α stimulation, 24 hours incubation, IL-6 in supernatant by ELISA; read-out: 50% inhibitory concentration (IC50) on IL-6 production. It counts as cell-based. The protocol: According to following experiments, it is confirmed that the compound of the present invention has an inhibitory activity on IL-6 production. • (1) The Measurement of an Inhibitory Activity on IL-6 Production from A549 Cells Method:
1.5×10^4 of A549 cells (human lung epithelial cell line) were suspended in 100 μL of Dulbecco's Modified Eagle Medium (DMEM) containing 0.5% fetal bovine serum (abbreviated as FBS) and incubated for a day and night in 96 well-microplate. 20 μL of the test compound dissolved in dimethylsulfoxide (DMSO) at various concentrations and 80 μl of tumor necrosis factor-α (TNF-α (Genzyme Co., cat. No. TNF-H)) dissolved in serum-free DMEM at the concentration of 12.5 ng/mL were added thereto. After the incubation for 24 hours, the supernatant (100 μL) was collected to measure the amount of IL-6 being produced using enzyme linked immuno […] assay (ELISA) (R&D Systems Co., cat. No. D6050). Then the inhibitory activity of the test compound was calculated and the 50% inhibitory concentration (IC50) was determined.

For `O=C(CCCCCNC(=O)c1ccc(-c2ccccc2)cc1)NO` [Example 2], the IC50 is 180 nM.
